{
  "source": "patent US20070021451A1",
  "about": "“Method for preventing or treating neurologic damage after spinal cord injury” (HAMAMATSU UNIVERSITY SCHOOL OF MEDICINE, priority 2005, published 2007)",
  "key": {"[1]": {"system": "Rabbit Model of Spinal Cord Ischemia", "assay": "Infarct size of spinal cords by TTC staining", "type": "in vivo, New Zealand White rabbits", "details": "for Infarct size as a percentage of the area of the whole gray matter: mid lumbar, 48 hours after spinal cord ischemia, control 54.7±19.8%", "experimental": "Twenty-six male New Zealand White rabbits weighting 2.2 to 3.0 kg were used in this experiment. Spinal cord ischemia was induced by occluding the abdominal aorta with […] for 20 minutes just distal to the renal arteries. Surgical preparation was conducted according to the method described in the literature, Terada H. et. al., J. Thorac. Cardiovasc. Surg. 2001; 122: 979-85. A 24-gauge venous catheter was placed in the marginal ear vein for drug administration. The rabbits were anesthetized with intravenous sodium pentobarbital (25 mg/kg) and allowed to breathe spontaneously. Lidocaine (0.5%) was administered at the site of the skin incision as local anesthesia. The left common carotid artery was cannulated with a 24-gauge catheter for monitoring the arterial pressure. Core body temperature was continuously monitored with a rectal probe and was maintained at 38.5° C. with the aid of heating lamp. The infrarenal abdominal aorta was exposed through a transperitoneal approach. After systemic heparinization (200 U/kg), spinal cord ischemia was induced by occluding the abdominal aorta with […] for 20 minutes just distal to the renal arteries and just above the aortic bifurcation. Then, the […] released, and the flank was closed. […] The rabbits were assigned randomly to 1 of the 4 groups and subjected to the treatment of (1) above in the following manner. The sham group (n=3) underwent the same operation without aortic occlusion. The control group (n=7) received saline (1 ml) intravenously 15 minutes before aortic occlusion. NS-7 (1 mg/kg) was administered intravenously as a bolus dose 15 minutes before aortic occlusion in group A (n=8) or just after releasing the […] onset of reperfusion) in group B (n=8). All animals were killed by means of a lethal injection of pentobarbital (200 mg/kg) 48 hours after operation. […] The area of infarction was calculated with National Institutes of Health Image software. The infarct size was expressed as a percentage of the area of the whole gray matter. […]"}, "[2]": {"system": "Rabbit Model of Spinal Cord Ischemia", "assay": "Histopathologic examination (HE staining, semiquantitative histologic score)", "type": "in vivo, New Zealand White rabbits", "experimental": "Twenty-six male New Zealand White rabbits weighting 2.2 to 3.0 kg were used in this experiment. Spinal cord ischemia was induced by occluding the abdominal aorta with […] for 20 minutes just distal to the renal arteries. Surgical preparation was conducted according to the method described in the literature, Terada H. et. al., J. Thorac. Cardiovasc. Surg. 2001; 122: 979-85. A 24-gauge venous catheter was placed in the marginal ear vein for drug administration. The rabbits were anesthetized with intravenous sodium pentobarbital (25 mg/kg) and allowed to breathe spontaneously. Lidocaine (0.5%) was administered at the site of the skin incision as local anesthesia. The left common carotid artery was cannulated with a 24-gauge catheter for monitoring the arterial pressure. Core body temperature was continuously monitored with a rectal probe and was maintained at 38.5° C. with the aid of heating lamp. The infrarenal abdominal aorta was exposed through a transperitoneal approach. After systemic heparinization (200 U/kg), spinal cord ischemia was induced by occluding the abdominal aorta with […] for 20 minutes just distal to the renal arteries and just above the aortic bifurcation. Then, the […] released, and the flank was closed. […] The rabbits were assigned randomly to 1 of the 4 groups and subjected to the treatment of (1) above in the following manner. The sham group (n=3) underwent the same operation without aortic occlusion. The control group (n=7) received saline (1 ml) intravenously 15 minutes before aortic occlusion. NS-7 (1 mg/kg) was administered intravenously as a bolus dose 15 minutes before aortic occlusion in group A (n=8) or just after releasing the […] onset of reperfusion) in group B (n=8). All animals were killed by means of a lethal injection of pentobarbital (200 mg/kg) 48 hours after operation. Spinal cords were quickly harvested and sectioned from the low thoracic level to the low lumbar level into the following 4 segments: low thoracic (LT=T10-T12), upper lumbar (UL=L1-L2), mid lumbar (ML=L3-L4), and low lumbar (LL=L5-L6). […]"}},
  "data": [
    {"smiles": "Cc1cc(-c2ccc(F)cc2)cc(OCCCCCN2CCCCC2)n1.Cl", "note": "[NS-7, 4-(4-Fluorophenyl)-2-methyl-6-(5-piperidinopentyloxy)pyridine hydrochloride]", "values": [
      {"measurement": "Infarct size as a percentage of the area of the whole gray matter", "setting": "[1]; NS-7 1 mg/kg i.v. at the onset of reperfusion (group B)", "result": "12.1±12.8", "unit": "%"},
      {"measurement": "Infarct size as a percentage of the area of the whole gray matter", "setting": "[1]; NS-7 1 mg/kg i.v. injected before ischemia (group A)", "result": "14.0±14.3", "unit": "%"},
      {"measurement": "Gray matter infarction in TTC-stained sections (FIG. 1)", "setting": "[1]; NS-7 before ischemia or at the onset of reperfusion, mid lumbar level", "result": "Minimal gray matter infarction"},
      {"measurement": "Cellular damage in HE-stained sections (FIG. 3)", "setting": "[2]; NS-7 before ischemia or at the onset of reperfusion, mid lumbar", "result": "minimal evidence of cellular damage"},
      {"measurement": "Histologic changes in the spinal cords", "setting": "[2]; group A or group B, mid lumbar and low lumbar levels", "result": "only slight changes"},
      {"measurement": "Average histologic scores", "setting": "[2]; group A or group B, mid lumbar and low lumbar levels, vs control group (FIG. 4)", "result": "significantly lower than those of the control group"}
    ]}
  ]
}
